Measured values from patent US12263144B2, “Methods of treating IgA nephropathy with thiol-containing molecules” (Accubit LLC—Biotechnology, priority 2020, dated 2025).
Each block holds one compound with its values, some of them ahead of it.

What was measured:
Type in all cases: biochemical
Rat rIgA (poly-rIgA) = assay: SEC determination of poly- and mono-rIgA content of rat rIgA after treatment; settings: for disassembly of poly-rIgA into monomers (SEC): rat rIgA, reducing agents added, FIG. 3 A-C
Experimental: (§1) The overall complex size of IgA aggregates was determined either by size-exclusion chromatography (SEC: Superdex 200 Increase 10/300 by GL Cytiva), or by SDS-PAGE. For evaluating the involvement of intermolecular disulfide connectivity in IgA complexes, IgA samples were treated with either reducing agents, such as DTT, TCEP or reduced glutathione (Sigma), or interventional drugs, such as cysteamine (Sigma), WR-1065 (Sigma) and N-Acetyl-L-cysteine (VWR Chemicals) in phosphate-buffered saline (PBS) pH7.4. Before running on SEC, samples were treated with the drugs at indicated concentrations at 37° C. for one hour.
In the meantime, the SEC column was also equilibrated with PBS supplemented with the reducing agent at the same concentration. For running SEC, 100 μL of the recombinant IgA (concentration varies between 1 mg/mL and 8 mg/mL) or purified native human IgA1 (˜1 mg/mL) was loaded to the column and UV absorption was recorded following elution. […] The ratios between poly-rIgA and mono-rIgA were calculated as between the corresponding areas under the curve (AUC), and the treatment effect of the thiol agents was judged by the reduction of the poly-rIgA level with a compensatory increase of the mono-rIgA content.
To further investigate specific cysteine residue(s) involved in IgA complexes, expression vectors were constructed to produce recombinant IgA (rIgA) Fc segments of rat and human sequences (FIG. 2, part A) as discussed above. Rat IgA analogs were expressed in BL21 DE3 strain of E. coil and recombinant protein were purified from the bacterial lysate using Histrap HP columns (GE Healthcare) by running fast protein liquid chromatography (FPLC). Human recombinant IgA mimetics were produced from human embryo kidney (HEK293) cells by transfection of the expressing plasmids. Recombinant IgA proteins expressed by the cells were secreted into the culture medium, and they were subsequently purified by Histrap HP columns by FPLC using standard procedures. […] Rat rIgA was produced from bacterial expression as discussed above.
Cysteamine (Cy), an aminothiol that can react with cysteine, is both a natural metabolite produced in mammalian cells and a clinical drug used for treatment of cystinosis. In cystinosis, cysteamine reduces the disulfide bond in cystine, which is the oxidated dimer of amino acid cysteine (FIG. 4, part A). In the context of cysteine residues in proteins, endogenous cysteamine as well as the therapeutic drug forms mixed disulfides with susceptible cysteine sulfhydryl groups in a process called cysteamination (FIG. 4, part B). It was sought to determine whether cysteamine could reduce Cys471-disulfides to disaggregate poly-IgA. Rat rIgA (SEQ ID NO.4) was treated with various concentrations of cysteamine for one hour at 37° C. in phosphate buffered saline at neutral pH and the protein complexes were analyzed by SEC. The SEC column (model: Superdex 200 Increase 10/300 GL by Cytiva) was preequilibrated with the same buffer supplemented with the same concentration of cysteamine.

[1] = test system: natural IgA1 assembly (two heavy chains and two light chains connected via disulfide bonds); assay: Ex vivo study: integrity of natural IgA assembly under thiol/reducing agents
Experimental: as §1
(§2) Proteins in sample buffer (Bio-Rad Laboratories, Hercules, CA, USA) with or without TCEP (for reducing or nonreducing condition, respectively) were resolved by 4-12% SDS-PAGE (Bio-Rad Laboratories). IgA bands were subsequently visualized either by staining with GelCode Blue (Thermo Fisher Scientific), or by Western blotting on PVDF membrane. For Western blotting, 5% non-fat milk was used in blocking for one hour at room temperature. The membrane was then incubated with mouse anti-Histag antibody (Thermo Scientific), or HRP-conjugated goat anti-rat IgA α-chain antibody (Cat. ab97185, Abcam, UK), or goat anti-human IgA HRP antibody (Cat: 2050-05, SouthernBiotech) for detecting rat or human IgA (Fc), respectively. The membrane was developed using the Clarity™ ECL substrate (Bio-Rad Laboratories, CA, USA).

[2] = biological target: T1, poly-IgA complexes from IgA nephropathy patients' plasma (Homo sapiens, UniProt P01876); assay: SDS-PAGE / anti-IgA Western blotting of poly-IgA from IgA nephropathy patients' plasma with or without reducing agent; settings: reducing condition
T1 construct: human IgA1 whole molecule was purified from pooled plasma of IgA nephropathy patients; from tissue
Source text: (§3) IgA1 from IgA nephropathy patient sera was purified by Jacalin (Thermo Scientific, USA)-directed affinity chromatography. Poly-IgA1 contents were further enriched via running Superdex 200 Increase gel filtration molecular sieve (GE Biosciences) and collecting high-molecular weight fractions from an AKTA protein purification system (GE Biosciences). Human serum from healthy donors was purchased from Sigma-Aldrich and total IgA1 was also purified by running Jacalin-directed chromatography. Purified total IgA1 was used for injecting mice.
Proteins in sample buffer (Bio-Rad Laboratories, Hercules, CA, USA) with or without TCEP (for reducing or nonreducing condition, respectively) were resolved by 4-12% SDS-PAGE (Bio-Rad Laboratories). IgA bands were subsequently visualized either by staining with GelCode Blue (Thermo Fisher Scientific), or by Western blotting on PVDF membrane. […]
In this Example, it was sought to isolate high molecular weight IgA complexes, such as poly-IgA, from plasma of IgA nephropathy patients. […] By running SDS-PAGE of the poly-IgA fraction under both reducing and nonreducing conditions, it was determined that the molecular complexes of IgA were connected through disulfide bridges (FIG. 1, part B). […] IgA1 complexes were extracted from individual patients by SEC and analyzed the contents by SDS-PAGE.

human IgA1 (poly-IgA1) = biological target: T2, human IgA1 (poly-IgA1) (Homo sapiens, UniProt P01876); assay: SEC of native human IgA1 treated ex vivo; settings: total IgA1 from human sera, FIG. 5 E-F
T2 construct: human IgA1 whole molecule was purified from pooled plasma of IgA nephropathy patients; from tissue
Source text: as §3, §1
In the meantime, the SEC column was also equilibrated with PBS supplemented with the reducing agent at the same concentration. For running SEC, 100 μL of the recombinant IgA (concentration varies between 1 mg/mL and 8 mg/mL) or purified native human IgA1 (˜1 mg/mL) was loaded to the column and UV absorption was recorded following elution. Recombinant IgA typically formed two elution peaks: a minor peak of ˜800 kDa poly-rIgA followed by a major peak of ˜170 kDa of monomeric rIgA. The ratios between poly-rIgA and mono-rIgA were calculated as between the corresponding areas under the curve (AUC), and the treatment effect of the thiol agents was judged by the reduction of the poly-rIgA level with a compensatory increase of the mono-rIgA content.
In addition, human IgA1 whole molecule was purified from pooled plasma of IgA nephropathy patients and subjected the sample to different concentrations of cysteamine (FIG. 5, part C). […]

rat poly-rIgA = assay: Nonreducing SDS-PAGE analysis of rat poly-rIgA after pretreatment; settings: cysteamine 0 to 10 mM; TCEP 10 mM; untreated poly-IgA >250 kDa
Experimental: as §2
To further ascertain the mechanism-of-action of cysteamine in targeting disulfides, nonreducing SDS-PAGE analysis was performed of rat poly-rIgA (FIG. 5, part D). The samples were pretreated with 0 to 10 mM cysteamine, or 10 mM TCEP as positive control. As expected, poly-IgA appeared as >250 kDa bands on SDS-PAGE. Dose-dependent response of poly-rIgA to cysteamine was evident, with majority of the protein running at ˜64 kDa of disaggregated monomers.

T1 sequence (P01876 1-353 isoform P01876-1, one chain of several): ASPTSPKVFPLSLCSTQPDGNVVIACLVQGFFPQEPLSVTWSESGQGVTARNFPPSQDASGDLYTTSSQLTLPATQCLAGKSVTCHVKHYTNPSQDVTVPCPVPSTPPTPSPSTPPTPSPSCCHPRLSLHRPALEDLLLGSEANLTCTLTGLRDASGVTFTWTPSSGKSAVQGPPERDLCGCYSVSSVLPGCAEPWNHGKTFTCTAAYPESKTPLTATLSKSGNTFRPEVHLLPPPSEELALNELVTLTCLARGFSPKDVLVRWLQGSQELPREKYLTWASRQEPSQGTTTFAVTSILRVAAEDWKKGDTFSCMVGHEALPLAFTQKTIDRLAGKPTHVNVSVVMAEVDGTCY
T2 sequence (P01876 1-353 isoform P01876-1): as the sequence (P01876 1-353 isoform P01876-1, one chain of several) above

Structure (SMILES): O[C@@H](CS)[C@@H](O)CS (racemic) [DDT, 1,4-Dithiothreitol]
disassembly of poly-rIgA into monomers (SEC) (Rat rIgA (poly-rIgA)): poly-rIgA disassembled into monomers
disruption of natural IgA assembly / normal pairing of IgA heavy chains [1]: inadvertently dissociated normal pairing of IgA heavy chains

size of IgA1 band after reduction of ~600 kDa poly-IgA1 (Western blot) ([2]; eight individual IgA nephropathy patients): ~65 kDa
Structure (SMILES): OCCS [2-mercaptoethanol]

Structure (SMILES): CC(=O)N[C@@H](CS)C(=O)O [N-acetylcysteine, N-acetyl-L-cysteine]
poly-IgA level (SEC) (human IgA1 (poly-IgA1)): lowered poly-IgA levels in a dose-dependent manner
disruption of natural IgA assembly / normal pairing of IgA heavy chains [1]: did not cause unwanted disruption of natural IgA1 assembly

Structure (SMILES): O=C(O)CCP(CCC(=O)O)CCC(=O)O [TCEP, tris(2-carboxyethyl)phosphine]
disassembly of poly-rIgA into monomers (SEC) (Rat rIgA (poly-rIgA)): poly-rIgA disassembled into monomers
molecular weight of protein band after pretreatment (nonreducing SDS-PAGE) (rat poly-rIgA): ~32 kDa
size of IgA band after reduction of ~600 kDa poly-IgA (Western blot) ([2]; pooled plasma of IgA nephropathy patients (n=10)): ~65 KDa
disruption of natural IgA assembly / normal pairing of IgA heavy chains [1]: inadvertently dissociated normal pairing of IgA heavy chains

poly-IgA level (SEC) (human IgA1 (poly-IgA1)): reduction of poly-IgA levels
Structure (SMILES): NCCCNCCS [WR-1065, 2-[(3-aminopropyl)amino]ethanethiol]
disruption of natural IgA assembly / normal pairing of IgA heavy chains [1]: did not cause unwanted disruption of natural IgA1 assembly

Structure (SMILES): N[C@@H](CCC(=O)N[C@@H](CS)C(=O)NCC(=O)O)C(=O)O [glutathione]
effect on poly-IgA levels at comparable concentrations (Rat rIgA (poly-rIgA); compared with cysteamine, WR-1065, N-acetylcysteine): relatively modest effects on poly-IgA levels
